Data taken from paper PMC7906907, “Targeting STAT3 by a small molecule suppresses pancreatic cancer progression” (Oncogene, 2021).

Legend:
[1] = molecular target: T1, STAT3 dimerization (Homo sapiens, UniProt P40763); experiment: STAT3 dimerization experiment (immunoprecipitation); type: cell-based; settings: PANC-1 cells, 2 μM, with or without IL-6 stimulation
T1 construct: endogenous in cells; host or cells: PANC-1
Source text: (§1) Fig. 3 N4 interacts with the STAT3-SH2 domain and interferes with the STAT3-EGFR and STAT3-NF-κB interactions. […] C–E The binding between N4 and STAT3 was examined in (C) SPR and (D) MST experiments. His-STAT3^127-722 protein was purified and used to examine the affinity between STAT3 and N4. (E) The binding between N4 and STAT3^SH2 was confirmed in MST assays. STAT3-SH2 protein was purified and labeled. N4 was serially diluted and mixed with equal volumes of labeled STAT3^SH2 protein. The MST signal was measured, and the data were analyzed by MO analysis software. F, G The FLAG-tag and HA-tag STAT3 expression plasmid was transfected into 293 T cells, followed by the addition of the indicated concentrations of N4. After 24 h, cells were lysed, and immunoprecipitation experiments were performed as described in Materials and Methods. H N4 represses STAT3 dimerization in pancreatic cancer cells. I After a 24 h treatment with 2 μM N4, pancreatic cancer cells were stimulated with IL-6 for 30 min. Cell lysates were immunoprecipitated with STAT3 overnight. The precipitates were washed, suspended in non-reducing sample buffer, and boiled for 10 min. The indicated antibodies were used for western blot assays. […]
(§2) Co-IP was performed as previously described. […] After overnight incubation, the precipitates were washed and analyzed using western blotting.

[2] = tested on: PAN02-luc; experiment: Pancreatic cancer liver metastatic mouse model; type: in vivo, C57BL/6 mice; settings: for mice alive: n = 5
Description: C57BL/6 mice were intrasplenically injected with luciferase-expressing PAN02 cells (PAN02-luc) in matrigel and tumor growth was assessed (A) and quantified (B) by bioluminescent imaging weekly. […] C After 4 weeks, mice were sacrificed and livers were imaged. D The body weight of C57BL/6 tumor-bearing mice were measured weekly.
C57BL/6, male, 8-week-old mice were obtained from the Animal Center of East China Normal University. All animal experimental protocols were approved by the Animal Investigation Committee of the Institute of Biomedical Sciences, East China Normal University. PAN02 cells that stably expressed luciferase (PAN02-luc) were embedded in Matrigel (BD Biosciences) and intrasplenically injected into mice. Tumors were allowed to grow for 1 week and treatment of the mice with either compound or control was started after grouping of the mice according to average bioluminescence. The IVIS Imaging System (Xenogen Corporation) was used to monitor pancreatic tumor growth and metastasis. Images and measurements of bioluminescent signals were acquired and analyzed using Living Image and Xenogen software.

[3] = molecular target: T2, STAT3^127–722 protein (Homo sapiens, UniProt P40763); experiment: Surface plasmon resonance (SPR) assay; type: binding
T2 construct: made in house
Description: Surface plasmon resonance (SPR) analysis was conducted with a Biacore T200 instrument (GE Healthcare) with CM5 sensor chip (GE Healthcare). To test N4 binding of STAT3^127–722 protein, serially diluted concentrations of N4 were injected into the flow system. Experiments were conducted using phosphate buffered saline (PBS) and the analyte was injected at the flow rate of 30 μL/min. The association time was 60 s and the dissociation time was 30 s. Since N4 was dissolved in PBS containing 5% dimethyl sulfoxide and a solvent correction assay was performed to adjust the results. STAT3^127–722 protein was immobilized on the sensor chip (CM5) using the amine-coupling method according to standard protocols. N4 or Stattic at various concentrations were injected into the flow system. […] The KD values were calculated with the kinetics and affinity analysis option of Biacore T200 plus evaluation software (version 3.0).

[4] = molecular target: T3, STAT3–EGFR interaction (Homo sapiens, UniProt P40763); experiment: Co-immunoprecipitation, STAT3–EGFR interaction; type: cell-based; settings: PANC-1 cells, 2 μM, 24 h
T3 construct: endogenous in cells; host or cells: PANC-1
Source text: as §1, §2

[5] = tested on: PAN02-luc; experiment: Orthotopic pancreatic cancer tumor model; type: in vivo, C57BL/6 mice
Description: Fig. 7 N4 inhibits tumor growth in an orthotopic pancreatic cancer model. C57BL/6 mice were injected the tail of the pancreas with luciferase-expressing PAN02 cells (PAN02-luc) in matrigel and tumor growth was assessed (A) and quantified (B) by bioluminescent imaging weekly. Data represent the mean ± SD; *P < 0.05, **P < 0.01, ***P < 0.001, ****P < 0.0001, n.s. not significant by one-way ANOVA followed by multiple-comparison tests. (n = 5 mice per group) C After 4 weeks, mice were sacrificed and the pancreas were imaged. The tumor of pancreas were photographed (D) and weighted (E), scale bar, 0.5 cm.
Briefly, specimens of tumor tissue from xenograft models and orthotopic models were fixed with 4% paraformaldehyde solution at 4 °C overnight. […] Then, according to the manufacturer’s instructions (SK-4100; Vector laboratories), the avidin-biotin peroxidase complex was used, followed by colorimetric detection using DAB. Finally, hematoxylin was used to counterstain the sections and coverslips were mounted.
C57BL/6 mice, male, 4–6 week old were obtained from the Animal Center of East China Normal University. All animal experimental protocols were approved by the Animal Investigation Committee of the Institute of Biomedical Sciences, East China Normal University. PAN02 cells that stably expressed luciferase (PAN02-luc) were embedded in Matrigel (BD Biosciences) were injected with 5 × 10^5 in the tail of the pancreas. On the next day (day 0), the mice were subjected to bioluminescent imaging and divided into four groups according to the luciferase luminescence value. Mice were treated with intraperitoneal injection of indicated compound or drug. Tumor growth was analyzed once a week by an IVIS Imaging System (Xenogen Corporation, Alameda, CA) and end of study tumor weight was determined immediately postmortem. […] Images and measurements of bioluminescent signals were acquired and analyzed using Living Image and Xenogen software.

T2 sequence (P40763 127-722): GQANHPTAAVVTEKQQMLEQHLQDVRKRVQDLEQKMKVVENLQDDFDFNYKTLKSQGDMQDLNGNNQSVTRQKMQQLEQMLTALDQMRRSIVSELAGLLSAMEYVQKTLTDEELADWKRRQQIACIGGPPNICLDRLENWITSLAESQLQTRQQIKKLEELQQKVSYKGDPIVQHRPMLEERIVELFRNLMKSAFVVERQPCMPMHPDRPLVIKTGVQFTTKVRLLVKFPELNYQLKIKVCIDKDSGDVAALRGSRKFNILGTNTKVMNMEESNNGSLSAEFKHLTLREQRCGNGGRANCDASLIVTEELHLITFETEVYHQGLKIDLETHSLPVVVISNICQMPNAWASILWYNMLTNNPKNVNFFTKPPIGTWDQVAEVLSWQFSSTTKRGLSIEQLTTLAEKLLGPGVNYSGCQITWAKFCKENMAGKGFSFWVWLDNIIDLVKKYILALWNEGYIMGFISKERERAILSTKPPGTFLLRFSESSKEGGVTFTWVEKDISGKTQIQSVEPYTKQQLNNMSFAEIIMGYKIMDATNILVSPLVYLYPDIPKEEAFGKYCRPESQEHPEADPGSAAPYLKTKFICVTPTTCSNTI
T3 sequence (P40763 2-770 limits assumed): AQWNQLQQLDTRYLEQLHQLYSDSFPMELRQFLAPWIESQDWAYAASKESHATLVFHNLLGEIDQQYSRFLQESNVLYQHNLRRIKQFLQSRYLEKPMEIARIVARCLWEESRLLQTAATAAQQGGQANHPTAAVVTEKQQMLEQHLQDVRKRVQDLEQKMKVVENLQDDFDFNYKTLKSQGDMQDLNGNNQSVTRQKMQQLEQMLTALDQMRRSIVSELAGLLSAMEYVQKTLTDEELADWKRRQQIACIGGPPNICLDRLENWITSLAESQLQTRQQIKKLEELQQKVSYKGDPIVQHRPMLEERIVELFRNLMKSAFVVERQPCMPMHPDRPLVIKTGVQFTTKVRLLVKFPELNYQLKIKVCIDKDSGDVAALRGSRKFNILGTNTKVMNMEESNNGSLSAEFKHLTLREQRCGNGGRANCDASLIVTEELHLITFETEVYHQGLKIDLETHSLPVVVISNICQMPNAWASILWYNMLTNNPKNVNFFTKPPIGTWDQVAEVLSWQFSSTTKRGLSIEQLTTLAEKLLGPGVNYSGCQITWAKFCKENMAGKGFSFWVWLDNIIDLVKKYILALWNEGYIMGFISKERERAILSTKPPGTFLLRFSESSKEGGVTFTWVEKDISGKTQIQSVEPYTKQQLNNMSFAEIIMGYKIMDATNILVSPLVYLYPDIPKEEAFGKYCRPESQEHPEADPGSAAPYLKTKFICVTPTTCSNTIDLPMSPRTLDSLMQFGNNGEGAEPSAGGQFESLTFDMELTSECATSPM
T1 sequence (P40763 2-770 limits assumed): as above

**Q.** For `COc1cc2c(cc1C(=O)Nc1cccc3cccnc13)CCC1C(C)(C)C(=O)C(C#N)=C[C@]21C` (some centres unmarked) [N4], which STAT3 dimerization [1] is on record?
**A.** efficiently decreased

**Q.** What about the mice bodyweight ([2]; measured weekly) of the same compound?
**A.** no obvious effect

**Q.** And the “tumor metastasis suppressed compared with the control group” value ([2]; week 4, 10 mg/kg/d)?
**A.** 63.25%

**Q.** And the “tumor metastasis suppressed compared with the control group” value ([2]; week 4, 20 mg/kg/d)?
**A.** 81.16%

**Q.** And the mice alive ([2]; week 10, 10 mg/kg/d)?
**A.** 40%

**Q.** And the mice alive ([2]; week 10, 20 mg/kg/d)?
**A.** 80%

**Q.** And the Kd ([3]; SPR, STAT3^127–722 immobilized on CM5 chip, 25 °C)?
**A.** 1040 nM

**Q.** What about the “improvement of binding affinities to STAT3 than Stattic” value ([3]; in FP and SPR experiments) of the same compound?
**A.** approximately tenfold improvement

**Q.** And the “STAT3–EGFR interaction” value [4]?
**A.** inhibited

**Q.** And the “expression of stromal cells marker α-SMA in vivo” value ([5]; IHC of tumor tissue)?
**A.** drastically suppressed

**Q.** What about the “expression of vimentin in vivo” value ([5]; IHC of tumor tissue) of the same compound?
**A.** significantly suppressed

**Q.** And the “number of TAM (F4/80+ macrophages)” value ([5]; IHC of tumor tissue)?
**A.** significantly decreased

**Q.** What about the “tumor volume suppressed compared with the control group” value ([5]; week 4, 10 mg/kg/d) of the same compound?
**A.** 97.34%

**Q.** What about the “tumor volume suppressed compared with the control group” value ([5]; week 4, 20 mg/kg/d) of the same compound?
**A.** 98.88%
